Patent US9889146B2, “Benzoxaborole compounds and uses thereof” (priority 2012, dated 2018)
Values after ≈ are worked out from the molar mass of the structure shown. Read-outs that look alike come from different tables or passages of the source.

Legend:
Assay type in all cases: cell-based
[1] = test system: Escherichia coli 1161435 parent and mutant strains B4, B26 and B35; experiment: Sensitivity to leucine analogs in MH and M9 media
[2] = test system: K. pneumoniae ATCC 13883 wild type and mutants; experiment: MIC in M9 minimal media; settings: Klebsiella pneumoniae, read-out: MICs in M9 minimal media
Procedure: (§1) Spontaneous Resistance Frequency was determined in vitro for GSK2251052 and the resistance mutants in E. coli ATCC 25922, K. pneumoniae ATCC 13883, and P. aeruginosa ATCC 27853 strains were characterized. GSK2251052 was prepared as described in U.S. Pat. No. 7,816,344 (the entire contents of which are hereby incorporated by reference herein). LB broth, Mueller Hinton II broth (adjusted), and Difco noble agar were obtained from Becton Dickinson (Cockeysville, Md., USA). M9 minimal broth containing 1×M9 salt, 0.5 μg/ML thiamine, 1 mM MgSO4, 0.1 mM CaCl2, 2% glucose, was obtained from Teknova (Hollister, Calif., USA). Antibacterial agents ciprofloxacin, ceftazidime, chloramphenicol, gentamycin, kanamycin, polymixin B, tobramycin and trimethoprim, and amino acids were obtained from Sigma Chemicals (St. Louis, Mo., USA). Strains were obtained from ATCC (Manassas, Va., USA).
(§2) Susceptibility tests were performed following the recommendations for aerobic bacteria (M7-A7) from the Clinical and Laboratories Standards Institute (CLSI).
(§3) The aminoacyl-tRNA synthetase enzyme, LeuRS, ensures the correct amino acid, leucine, is attached to tRNA^Leu. The LeuRS synthetic active site is capable of aminoacylating tRNA^Leu with amino acids structural similar to leucine (norvaline, norleucine, isoleucine and methionine). These mischarged tRNA^Leu are hydrolyzed by the editing domain, thus preventing the deleterious incorporation of incorrect amino acids into the growing polypeptide. The laboratory generated mutants were further tested for their ability to grow in defined media with exogenously added amino acids. Norvaline and norleucine, structurally similar to leucine, were tested in M9 minimal media. […]

[3] = test system: E. coli ATCC 25922 wild type and mutants; experiment: MIC in M9 minimal media; settings: Escherichia coli, read-out: MICs in M9 minimal media
Procedure: as §1, §2, §3

[4] = test system: P. aeruginosa ATCC 27853 wild type and mutants; experiment: MIC in M9 minimal media; settings: Pseudomonas aeruginosa, read-out: MICs in M9 minimal media
Procedure: as §1, §2, §3

[5] = test system: P. aeruginosa ATCC 27853, E. coli ATCC 25922 and K. pneumoniae ATCC 13883; experiment: MIC in M9 minimal media, three strains summarised; settings: all GSK2251052 resistant mutants
Procedure: as §1, §2
The aminoacyl-tRNA synthetase enzyme, LeuRS, ensures the correct amino acid, leucine, is attached to tRNA^Leu. The LeuRS synthetic active site is capable of aminoacylating tRNA^Leu with amino acids structural similar to leucine (norvaline, norleucine, isoleucine and methionine). […]

[6] = test system: E. coli isolates from subject E. coli 1; experiment: MIC in M9 minimal media of clinical isolates, subject E. coli 1; settings: Escherichia coli
Procedure: The E. coli and P. mirabilis strains were cultured on Trypticase Soy Agar/5% blood plates (Becton Dickinson BBL), in cation adjusted Mueller-Hinton II Broth, or in M9 minimal salts (Becton Dickinson) broth containing 0.4% glucose and 200 uM MgSO4. L-Norvaline (Sigma-Aldrich) was prepared at a concentration of 6.4 mg/ml in […], in a final volume of approx 0.5 ml, and stored at −20° C. until required.
Minimum inhibitory concentrations (MICs) were determined using the CLSI (Clinical and Laboratory Standards Institute, formerly NCCLS) recommended broth microdilution methodology [NCCLS, 2003] using defined media.
Throughout this study E. coli and P. mirabilis strains were cultured on Trypticase Soy Agar/5% blood plates, on M9 salts/1.2% Bacto Agar plates, in Cation Adjusted Mueller-Hinton II Broth (CAMHB), or in M9 Minimal Salt Broth containing 0.4% glucose and 200 μM MgSO4. GSK2251052 and norvaline were prepared at a concentration of 6.4 mg/mL (free base) in 100% DMSO and 100% water respectively, aliquoted in 0.5 mL individual stocks, and stored at −20° C. until required.
Minimum inhibitory concentrations (MICs) were determined for each organism using the CLSI (Clinical and Laboratory Standards Institute) recommended broth microdilution methodology [CLSI, 2009].
Strains tested are detailed in Table 15. MICs for norvaline and GSK2251052 could only be determined for E. coli isolates from subject E. coli 1 (Table 16) as M9 Minimal Media could not sustain growth of E. coli isolates from subject E. coli 2 (isolates 2a-2o) or P. mirabilis isolates (isolates 3a-3c) from subject E. coli 3. […] This phenotype is consistent with a mutation in the editing site of LeuRS, which could also be responsible for the concomitant decrease in susceptibility to GSK2251052 observed in isolates from Days 2, 3 and 4 (Table 16).

E. coli = experiment: Inhibition of bacterial growth on agar plates; settings: preliminary studies

SMILES: CCC[C@H](N)C(=O)O [Norvaline, L-Norvaline]
- MIC (sensitivity to leucine analogs) ([1]; 1161435 Parent, M9): > 128 µg/mL
- MIC (sensitivity to leucine analogs) ([1]; 1161435 Parent, MH): > 128 µg/mL
- MIC (sensitivity to leucine analogs) ([1]; B4 (P339L), M9): 2 µg/mL
- MIC (sensitivity to leucine analogs) ([1]; B4 (P339L), MH): > 128 µg/mL
- MIC (sensitivity to leucine analogs) ([1]; B26 (R334H), M9): 16 µg/mL
- MIC (sensitivity to leucine analogs) ([1]; B26 (R334H), MH): > 128 µg/mL
- MIC (sensitivity to leucine analogs) ([1]; B35 (D251N), M9): 64 µg/mL
- MIC (sensitivity to leucine analogs) ([1]; B35 (D251N), MH): > 128 µg/mL
- sensitivity of the mutants ([1]; mutant strains in M9 minimal media): most sensitivity
- MIC ([2]; ATCC13883, K 104(leuRS D345Y)): 1 µg/mL (≈ 8.54 µM)
- MIC ([2]; ATCC13883, K 105(leuRS G229R)): 4 µg/mL (≈ 34.1 µM)
- MIC ([2]; ATCC13883, K 107(leuRS S227F)): 4 µg/mL (≈ 34.1 µM)
- MIC ([2]; ATCC13883, K 108(leuRS T248P)): 2 µg/mL (≈ 17.1 µM)
- MIC ([2]; ATCC13883, K 110(leuRS V338L)): 4 µg/mL (≈ 34.1 µM)
- MIC ([2]; ATCC13883, Klebsiella pneumoniae ATCC13883): 16 µg/mL (≈ 137 µM)
- MIC ([3]; ATCC25922, E 101(leuRS Y246H)): 4 µg/mL (≈ 34.1 µM)
- MIC ([3]; ATCC25922, E 102(leuRS D345G)): 0.5 µg/mL (≈ 4.27 µM)
- MIC ([3]; ATCC25922, E 107(leuRS G229S)): 1 µg/mL (≈ 8.54 µM)
- MIC ([3]; ATCC25922, E. coli ATCC25922): 32 µg/mL (≈ 273 µM)
- MIC ([4]; ATCC27853, P 101 (leuRS T256P)): 4 µg/mL (≈ 34.1 µM)
- MIC ([4]; ATCC27853, P 106 (leuRS V342M)): 0.25 µg/mL (≈ 2.13 µM)
- MIC ([4]; ATCC27853, P 108 (leuRS T252P)): 0.25 µg/mL (≈ 2.13 µM)
- MIC ([4]; ATCC27853, P. aeruginosa ATCC27853): > 64 µg/mL
- sensitivity of the resistant mutants [5]: High sensitivity
- MIC ([6]; 24 h, Isolate 1a, Blood, Day 1, read-out: MIC in M9 Minimal Media): 4 µg/mL (≈ 34.1 µM)
- MIC ([6]; 24 h, Isolate 1b, Urine, Day 1, read-out: MIC in M9 Minimal Media): 2 µg/mL (≈ 17.1 µM)
- MIC ([6]; 24 h, subject E. Coli 1, day 1, first line, no LeuRS change, read-out: Norvaline MIC in M9): 4 µg/mL (≈ 34.1 µM)
- MIC ([6]; 24 h, subject E. Coli 1, day 1, second line, no LeuRS change, read-out: Norvaline MIC in M9): 2 µg/mL (≈ 17.1 µM)
- MIC ([6]; 48 h, Isolate 1c, Blood, Day 2, read-out: MIC in M9 Minimal Media): 0.5 µg/mL (≈ 4.27 µM)
- MIC ([6]; 72 h, read-out: Norvaline MIC in M9): 0.5 µg/mL (≈ 4.27 µM)
- MIC ([6]; 96 h, Isolate 1e, Blood, Day 4, read-out: MIC in M9 Minimal Media): 0.5 µg/mL (≈ 4.27 µM)
- MIC ([6]; Isolate 1d, Blood, Day 3, read-out: MIC in M9 Minimal Media): 0.5 µg/mL (≈ 4.27 µM)
- concentration at which a bacterial lawn could still be observed (E. coli): > 64 µg/mL
